Source: ChEMBL document CHEMBL1201861, “Genomics of Drug Sensitity in Cancer screening data, Wellcome Trust Sanger Institute”

Assays:
Experiment in all cases: cells
Assay type in all cases: functional, cell-based, Homo sapiens
[1] = system: COLO-800; settings: Homo sapiens, COLO-800;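 note: growth inhibition of COLO-800 cells, read out with a cell viability assay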
Description: SANGER: Inhibition of human COLO-800 cell growth in a cell viability assay.

[2] = system: COLO-829; settings: Homo sapiens, COLO-829
Description: SANGER: Inhibition of human COLO-829 cell growth in a cell viability assay.

[3] = system: CTB-1; settings: Homo sapiens, CTB-1
Description: SANGER: Inhibition of human CTB-1 cell growth in a cell viability assay.

[4] = system: DOHH-2; settings: Homo sapiens, DOHH-2;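 note: growth inhibition of human DOHH-2 cells, read out with a cell viability assay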
Description: SANGER: Inhibition of human DOHH-2 cell growth in a cell viability assay.

[5] = system: EC-GI-10; settings: Homo sapiens, EC-GI-10
Description: SANGER: Inhibition of human EC-GI-10 cell growth in a cell viability assay.

[6] = system: ES1; settings: Homo sapiens, ES1;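 note: growth inhibition of ES1 cells, read out with a cell viability assay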
Description: SANGER: Inhibition of human ES1 cell growth in a cell viability assay.

[7] = system: ES4; settings: Homo sapiens, ES4;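 note: growth inhibition of human ES4 cells, read out by a cell viability assay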
Description: SANGER: Inhibition of human ES4 cell growth in a cell viability assay.

[8] = system: ETK-1; settings: Homo sapiens, ETK-1;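 note: growth inhibition of human ETK-1 cells, read out with a cell viability assay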
Description: SANGER: Inhibition of human ETK-1 cell growth in a cell viability assay.

[9] = system: GAK; settings: Homo sapiens, GAK;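 note: cell growth inhibition read out by a cell viability assay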
Description: SANGER: Inhibition of human GAK cell growth in a cell viability assay.

[10] = system: HCC2157; settings: Homo sapiens, HCC2157;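 note: growth inhibition of the cancer cell line, read out as cell viability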
Description: SANGER: Inhibition of human HCC2157 cell growth in a cell viability assay.

[11] = system: HL-60; settings: Homo sapiens, HL-60;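 note: growth inhibition of human HL-60 cells, read out with a cell viability assay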
Description: SANGER: Inhibition of human HL-60 cell growth in a cell viability assay.

[12] = system: HT; settings: Homo sapiens, HT
Description: SANGER: Inhibition of human HT cell growth in a cell viability assay.

[13] = system: JVM-2; settings: Homo sapiens, JVM-2;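 note: growth inhibition of JVM-2 cells determined by a cell viability assay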
Description: SANGER: Inhibition of human JVM-2 cell growth in a cell viability assay.

[14] = system: KLE; settings: Homo sapiens, KLE;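 note: growth inhibition of human KLE cells, read out with a cell viability assay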
Description: SANGER: Inhibition of human KLE cell growth in a cell viability assay.

[15] = system: L-363; settings: Homo sapiens, L-363
Description: SANGER: Inhibition of human L-363 cell growth in a cell viability assay.

[16] = system: LB1047-RCC; settings: Homo sapiens, LB1047-RCC;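 note: inhibition of cell growth, determined with a cell viability assay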
Description: SANGER: Inhibition of human LB1047-RCC cell growth in a cell viability assay.

[17] = system: LB996-RCC; settings: Homo sapiens, LB996-RCC
Description: SANGER: Inhibition of human LB996-RCC cell growth in a cell viability assay.

[18] = system: LS-123; settings: Homo sapiens, LS-123
Description: SANGER: Inhibition of human LS-123 cell growth in a cell viability assay.

[19] = system: MMAC-SF; settings: Homo sapiens, MMAC-SF;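 note: growth inhibition of human MMAC-SF cells, read out with a cell viability assay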
Description: SANGER: Inhibition of human MMAC-SF cell growth in a cell viability assay.

[20] = system: MN-60; settings: Homo sapiens, MN-60;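 note: growth inhibition of the MN-60 cell line, determined with a cell viability assay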
Description: SANGER: Inhibition of human MN-60 cell growth in a cell viability assay.

[21] = system: MZ1-PC; settings: Homo sapiens, MZ1-PC;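 note: cell viability assay measuring growth inhibition of human MZ1-PC cells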
Description: SANGER: Inhibition of human MZ1-PC cell growth in a cell viability assay.

[22] = system: NB12; settings: Homo sapiens, NB12;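 note: growth inhibition of human NB12 cells, read out by a cell viability assay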
Description: SANGER: Inhibition of human NB12 cell growth in a cell viability assay.

[23] = system: NB5; settings: Homo sapiens, NB5;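 note: growth inhibition of NB5 cells, read out as cell viability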
Description: SANGER: Inhibition of human NB5 cell growth in a cell viability assay.

[24] = system: NB6; settings: Homo sapiens, NB6;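 note: growth inhibition of NB6 cells, read out by a cell viability assay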
Description: SANGER: Inhibition of human NB6 cell growth in a cell viability assay.

[25] = system: NCI-H1092; settings: Homo sapiens, NCI-H1092;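 note: cell growth inhibition measured with a cell viability assay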
Description: SANGER: Inhibition of human NCI-H1092 cell growth in a cell viability assay.

[26] = system: NCI-H1155; settings: Homo sapiens, NCI-H1155;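 note: cell growth inhibition measured by a viability assay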
Description: SANGER: Inhibition of human NCI-H1155 cell growth in a cell viability assay.

[27] = system: NCI-H1299; settings: Homo sapiens, NCI-H1299;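 note: growth inhibition of human NCI-H1299 cells, read out by a cell viability assay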
Description: SANGER: Inhibition of human NCI-H1299 cell growth in a cell viability assay.

[28] = system: NCI-H1581; settings: Homo sapiens, NCI-H1581;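 note: cell growth inhibition read out by a viability assay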
Description: SANGER: Inhibition of human NCI-H1581 cell growth in a cell viability assay.

[29] = system: NCI-H209; settings: Homo sapiens, NCI-H209;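 note: growth inhibition of human NCI-H209 cells, measured by a cell viability assay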
Description: SANGER: Inhibition of human NCI-H209 cell growth in a cell viability assay.

[30] = system: NCI-H69; settings: Homo sapiens, NCI-H69;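 note: growth inhibition of the cell line, read out with a cell viability assay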
Description: SANGER: Inhibition of human NCI-H69 cell growth in a cell viability assay.

[31] = system: NH-12; settings: Homo sapiens, NH-12;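 note: growth inhibition of NH-12 cells, read out with a cell viability assay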
Description: SANGER: Inhibition of human NH-12 cell growth in a cell viability assay.

[32] = system: NMC-G1; settings: Homo sapiens, NMC-G1;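 note: growth inhibition of the NMC-G1 cell line, measured with a cell viability read-out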
Description: SANGER: Inhibition of human NMC-G1 cell growth in a cell viability assay.

[33] = system: RPMI-8866; settings: Homo sapiens, RPMI-8866
Description: SANGER: Inhibition of human RPMI-8866 cell growth in a cell viability assay.

[34] = system: RXF 393; settings: Homo sapiens, RXF 393;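 note: growth inhibition of human RXF 393 cells, read out with a cell viability assay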
Description: SANGER: Inhibition of human RXF393 cell growth in a cell viability assay.

[35] = system: SBC-1; settings: Homo sapiens, SBC-1;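 note: cell viability assay measuring growth inhibition of the SBC-1 cell line, IC50 being the concentration that halves growth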
Description: SANGER: Inhibition of human SBC-1 cell growth in a cell viability assay.

[36] = system: SF-268; settings: Homo sapiens, SF-268;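 note: growth inhibition of SF-268 cells determined with a cell viability assay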
Description: SANGER: Inhibition of human SF268 cell growth in a cell viability assay.

[37] = system: SK-MEL-1; settings: Homo sapiens, SK-MEL-1;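 note: growth inhibition of human SK-MEL-1 cells, read out by a cell viability assay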
Description: SANGER: Inhibition of human SK-MEL-1 cell growth in a cell viability assay.

[38] = system: SW684; settings: Homo sapiens, SW684;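 note: growth inhibition of human SW684 cells, measured by a cell viability assay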
Description: SANGER: Inhibition of human SW684 cell growth in a cell viability assay.

[39] = system: BV-173; settings: Homo sapiens, BV-173
Description: SANGER: Inhibition of human BV-173 cell growth in a cell viability assay.

[40] = system: C8166; settings: Homo sapiens, C8166;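 note: growth inhibition of human C8166 cells measured by a cell viability assay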
Description: SANGER: Inhibition of human C8166 cell growth in a cell viability assay.

[41] = system: TE-10; settings: Homo sapiens, TE-10;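 note: growth inhibition of TE-10 cells, measured by a cell viability assay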
Description: SANGER: Inhibition of human TE-10 cell growth in a cell viability assay.

[42] = system: TE-5; settings: Homo sapiens, TE-5;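 note: inhibition of cell growth, read out by a cell viability assay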
Description: SANGER: Inhibition of human TE-5 cell growth in a cell viability assay.

[43] = system: TE-9; settings: Homo sapiens, TE-9;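 note: cell growth inhibition, measured with a cell viability readout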
Description: SANGER: Inhibition of human TE-9 cell growth in a cell viability assay.

[44] = system: TK-10; settings: Homo sapiens, TK-10;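 note: growth inhibition of TK-10 cells, read out in a cell viability assay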
Description: SANGER: Inhibition of human TK10 cell growth in a cell viability assay.

[45] = system: UACC-257; settings: Homo sapiens, UACC-257
Description: SANGER: Inhibition of human UACC-257 cell growth in a cell viability assay.

[46] = system: VA-ES-BJ; settings: Homo sapiens, VA-ES-BJ;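 note: growth inhibition of the VA-ES-BJ cell line, read out by a cell viability assay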
Description: SANGER: Inhibition of human VA-ES-BJ cell growth in a cell viability assay.

[47] = system: no-11; settings: Homo sapiens;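 note: growth inhibition of human NO-11 cells, read out with a cell viability assay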
Description: SANGER: Inhibition of human no-11 cell growth in a cell viability assay.

[48] = system: COLO-320-HSR; settings: Homo sapiens, COLO-320-HSR;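 note: growth inhibition of COLO-320-HSR cells, determined with a cell viability assay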
Description: SANGER: Inhibition of human COLO-320-HSR cell growth in a cell viability assay.

Cc1cc([N+](=O)[O-])ccc1NS(=O)(=O)c1cc(Cl)ccc1Cl
IC50 [1]: 8.91 µM | IC50 [2]: 0.825 µM | IC50 [3]: 30.5 µM | IC50 [4]: 17.2 µM | IC50 [5]: 11.3 µM | IC50 [6]: 11.4 µM | IC50 [7]: 7.57 µM | IC50 [8]: 6.35 µM | IC50 [9]: 2.01 µM | IC50 [10]: 8.76 µM | IC50 [11]: 3.79 µM | IC50 [12]: 2.75 µM | IC50 [13]: > 32 µM | IC50 [14]: 6.59 µM | IC50 [15]: 8.56 µM | IC50 [16]: 6.74 µM | IC50 [17]: 14.5 µM | IC50 [18]: 9.22 µM | IC50 [19]: 3.92 µM | IC50 [20]: 27 µM | IC50 [21]: 6.31 µM | IC50 [22]: 11.1 µM | IC50 [23]: 14.5 µM | IC50 [24]: 13.5 µM | IC50 [25]: > 32 µM | IC50 [26]: > 32 µM | IC50 [27]: 3.19 µM | IC50 [28]: 9.37 µM | IC50 [29]: > 32 µM | IC50 [30]: > 32 µM | IC50 [31]: 14.6 µM | IC50 [32]: 9.89 µM | IC50 [33]: 3.32 µM | IC50 [34]: > 32 µM | IC50 [35]: > 32 µM | IC50 [36]: 6.02 µM | IC50 [37]: > 32 µM | IC50 [38]: > 32 µM | IC50 [39]: > 32 µM | IC50 [40]: 6.1 µM | IC50 [41]: 4 µM | IC50 [42]: 6.73 µM | IC50 [43]: 2.69 µM | IC50 [44]: 10.2 µM | IC50 [45]: 3.84 µM | IC50 [46]: 1.23 µM | IC50 [47]: 6.74 µM | IC50 [48]: 17.6 µM

Oc1ccc2ccccc2c1SSc1c(O)ccc2ccccc12
IC50 [1]: > 32 µM | IC50 [2]: > 32 µM | IC50 [3]: 12.7 µM | IC50 [4]: > 32 µM | IC50 [5]: > 32 µM | IC50 [6]: > 32 µM | IC50 [7]: 26.3 µM | IC50 [8]: > 32 µM | IC50 [9]: > 32 µM | IC50 [10]: > 32 µM | IC50 [11]: 8.85 µM | IC50 [12]: > 32 µM | IC50 [13]: > 32 µM | IC50 [14]: > 32 µM | IC50 [15]: > 32 µM | IC50 [16]: > 32 µM | IC50 [17]: > 32 µM | IC50 [18]: 8.8 µM | IC50 [19]: > 32 µM | IC50 [20]: > 32 µM | IC50 [21]: > 32 µM | IC50 [22]: > 32 µM | IC50 [23]: > 32 µM | IC50 [24]: 3.84 µM | IC50 [25]: > 32 µM | IC50 [26]: > 32 µM | IC50 [27]: > 32 µM | IC50 [28]: > 32 µM | IC50 [29]: > 32 µM | IC50 [30]: > 32 µM | IC50 [31]: 5.12 µM | IC50 [32]: > 32 µM | IC50 [33]: > 32 µM | IC50 [34]: > 32 µM | IC50 [35]: > 32 µM | IC50 [36]: > 32 µM | IC50 [37]: > 32 µM | IC50 [38]: > 32 µM | IC50 [39]: > 32 µM | IC50 [40]: > 32 µM | IC50 [41]: > 32 µM | IC50 [42]: > 32 µM | IC50 [43]: > 32 µM | IC50 [44]: > 32 µM | IC50 [45]: > 32 µM | IC50 [46]: > 32 µM | IC50 [47]: > 32 µM | IC50 [48]: > 32 µM
